Entries after “also recorded” stand apart in the source; their conditions may differ.
Experiments:
Smad2 = assay: Western blot of aortic root and proximal ascending aorta: Smad2 activation (Examples 4-5); assay type: in vivo, mice
Excerpt: (§1) All mice were cared for under strict compliance with the Animal Care and Use Committee of the Johns Hopkins University School of Medicine. The Fbn1^C1039G/+ and AT2KO lines were maintained n a pure C57BL/6 background (backcrossed for greater than 9 generations), allowing for valid comparisons. In order to further accommodate the potential for temporal- or background-specified variation, all comparisons were made between contemporary littermates when possible. The AT21C0 mice were obtained as a generous gift from Dr. Inagami (T. Ichiki et al., Nature 377, 748 (1995)). The Agtr2 gene resides on the X chromosome and therefore we used either male mice carrying the mutated allele (who are hemizygous) or homozygous females, both of which have been previously shown to be functionally null for the AT2 receptor (T. Ichiki et al., Nature 377, 748 (1995)). Mice were sacrificed with an inhalation overdose of halothane (Sigma-Aldrich, St. Louis). Mice underwent immediate laparotomy, descending abdominal aortic transection, and PBS (pH 7.4) was infused through the right and left ventricles to flush out the blood. Mice that were analyzed for Western Blot analysis had their proximal ascending aortas (root to right brachiocephalic trunk) immediately dissected out, flash frozen in liquid nitrogen and stored at −80d until further processing. Mice that were analyzed for aortic histology had latex injected under low pressure into the left ventricular apex until it was visible in the descending abdominal aorta. Mice that were analyzed for lung histology had their trachea intubated with a 20-gauge blunted needle, and 0.5% agar was infused under a low and constant pressure to gradually inflate the lungs. The trachea was then tied-off using vicryl and the needle was removed. Mice were fixed for 24 hours in 10% buffered formalin, after which the heart, aorta and lungs were removed and stored in 70% ethanol.
Mouse aortic root and ascending aortas (aortic root excluding the aortic valve to origin of right brachiocephalic trunk) were harvested, snap-frozen in liquid nitrogen and stored at −80° C. until processed. Protein was extracted using the reagents and protocol from a Total Protein Extraction Kit containing protease inhibitor and Protein Phosphatase Inhibitor Cocktail (Millipore, MA). Aortas were homogenized using a pellet pestle motor (Kimble-Kontes, NJ) as per the extraction kit protocol. […] Equal protein loading of samples was determined by a protein assay (BioRad, CA), and confirmed by probing with antibodies against β-Actin or GAPDH (Sigma, Mo.). […] Blots were then washed in PBS-T, developed using SuperSignalWest HRP substrate (Pierce Scientific, IL), exposed to BioMax Scientific Imaging Film (Sigma, Mo.) and quantified using Imaged analysis software (NIH, MD).

AT2KO:Fbn1^C1039G/+ mice [1] = assay: Aortic root growth by echocardiography, 7 months of treatment, MFS mice lacking AT2; assay type: in vivo
Protocol: (§2) A head-to-head comparison of ACEi versus ARBs was performed. Fbn1^C1039G/+ mice and WT littermates were treated with hemodynamically equivalent doses (FIG. 8) of either the ACEi enalapril (10 to 15 mg/kg of body weight per day) or the ARB losartan (40 to 60 mg/kg per day) (R. D. Patten et al., Clin. Sci 104, 109 (2003)), beginning at 8 weeks of age, and were assessed with serial echocardiograms. […] It is noteworthy that losartan reduced aortic root growth in Fbn1^C1039G/+ mice, but had no effect in WT littermates (P=0.27). […] Whether AT2 signaling is needed to achieve losartan's full therapeutic benefit was assessed. AT2KO:Fbn1^C1039G/+ mice were treated with losartan from 8 weeks of age and followed by serial echocardiography until they were killed at 9 months of age (FIG. 2C).
(§3) All mice were cared for under strict compliance with the Animal Care and Use Committee of the Johns Hopkins University School of Medicine. The Fbn1^C1039G/+ and AT2KO lines were maintained n a pure C57BL/6 background (backcrossed for greater than 9 generations), allowing for valid comparisons. […] Mice that were analyzed for Western Blot analysis had their proximal ascending aortas (root to right brachiocephalic trunk) immediately dissected out, flash frozen in liquid nitrogen and stored at −80d until further processing. Mice that were analyzed for aortic histology had latex injected under low pressure into the left ventricular apex until it was visible in the descending abdominal aorta. Mice that were analyzed for lung histology had their trachea intubated with a 20-gauge blunted needle, and 0.5% agar was infused under a low and constant pressure to gradually inflate the lungs. […]
Mice were started on medication at 8 weeks of age and continued for 7 months. […] Blood pressures were analyzed by taking 20 tail cuff blood pressures per day over 5 days in each mouse to habituate the mice to the tail cuff pressure system, and the blood pressures obtained on the last day were averaged. At least 4 mice for each treatment group were analyzed. […]

AT2KO:Fbn1^C1039G/+ mice [2] = assay: Systolic blood pressure by tail cuff, MFS mice lacking AT2; assay type: in vivo; details: AT2KO:Fbn1^C1039G/+ versus Fbn1^C1039G/+ mice, FIG. 8
Protocol: (§4) Mice were started on medication at 8 weeks of age and continued for 7 months. Losartan was dissolved in drinking water and filtered to reach a concentration of 0.6 g/L, giving an estimated daily dose of 40-60 mg/kg/day. Enalapril was dissolved in drinking water and filtered to reach a final concentration of 0.15 g/L, giving an estimated daily dose of 10-15 mg/kg/day. […] Spironolactone was dissolved in drinking water and filtered to give an estimated dose of 20 mg/kg/day, a dose previously shown to have in-vivo phenotypic benefit in cardiovascular disease states (S. Sakurabayashi-Kitade et al., Atherosclerosis 206, 54 (2009)). Placebo-treated animals received regular drinking water. Blood pressures were analyzed by taking 20 tail cuff blood pressures per day over 5 days in each mouse to habituate the mice to the tail cuff pressure system, and the blood pressures obtained on the last day were averaged. At least 4 mice for each treatment group were analyzed.

Fbn1^C1039G/+ mice [3] = assay: Systolic blood pressure by tail cuff; assay type: in vivo; details: compared to placebo-treated animals, FIG. 8
Protocol: as §4

JNK1 = assay: Western blot of proximal ascending aorta: JNK1 activation (Examples 4-5); assay type: in vivo, mice
Excerpt: as §1, with “The trachea was then tied-off using vicryl and the needle was removed. Mice were fixed for 24 hours in 10% buffered formalin, after which the heart, aorta and lungs were removed and stored in 70% ethanol.” left out
(§5) Mouse aortic root and ascending aortas (aortic root excluding the aortic valve to origin of right brachiocephalic trunk) were harvested, snap-frozen in liquid nitrogen and stored at −80° C. until processed. […] Equal protein loading of samples was determined by a protein assay (BioRad, CA), and confirmed by probing with antibodies against β-Actin or GAPDH (Sigma, Mo.). […]

Fbn1^C1039G/+ mice [4] = assay: Aortic root growth by echocardiography, 7 months of treatment (Examples 3-5); assay type: in vivo; details: for Final absolute aortic root diameter: 7 months of treatment, mean +/- 2 SEM
Protocol: as §2, §1, §4
Nair hair removal cream was used on all mice the day prior to echocardiograms. All echocardiograms were performed on awake, unsedated mice using the Visualsonics Vevo 660 V1.3.6 imaging system and a 30 MHz transducer. Mice were imaged at baseline, 1 month after treatment and then every two months until the time of sacrifice. […]

WT mice = assay: Aortic root growth by echocardiography, 7 months of treatment, WT littermates; assay type: in vivo
Protocol: as §2, with “AT2KO:Fbn1^C1039G/+ mice were treated with losartan from 8 weeks of age and followed by serial echocardiography until they were killed at 9 months of age (FIG. 2C).” left out
as §3, with “Medicine.” for “Medicine. The Fbn1^C1039G/+ and AT2KO lines were maintained n a pure C57BL/6 background (backcrossed for greater than 9 generations), allowing for valid comparisons.”

p38 = assay: Western blot of proximal ascending aorta: p38 activation (Examples 4-5); assay type: in vivo, mice
Excerpt: as §1, with “The trachea was then tied-off using vicryl and the needle was removed. Mice were fixed for 24 hours in 10% buffered formalin, after which the heart, aorta and lungs were removed and stored in 70% ethanol.” left out
as §5

ERK1/2 = assay: Western blot of aortic root and proximal ascending aorta: ERK1/2 activation (Examples 4-5); assay type: in vivo, mice
Excerpt: as §1, with “The trachea was then tied-off using vicryl and the needle was removed. Mice were fixed for 24 hours in 10% buffered formalin, after which the heart, aorta and lungs were removed and stored in 70% ethanol.” left out
as §5

[5] = treated AT2KO:Fbn1^C1039G/+ versus treated Fbn1^C1039G/+ mice, FIG. 14

CCCCc1nc(Cl)c(CO)n1Cc1ccc(-c2ccccc2-c2nn[nH]n2)cc1 [losartan]
Smad2 activation (Smad2; Fbn1^C1039G/+ mice, FIG. 10B): significantly decreased Smad2 activation | Smad2 activation (Smad2; [5]): no significant change; also recorded: no significant difference | Aortic root growth over 7 months of treatment (AT2KO:Fbn1^C1039G/+ mice [1]; AT2KO:Fbn1^C1039G/+ mice): modest reduction in aortic root growth; also recorded: diminished effectiveness | Final absolute aortic root diameter (AT2KO:Fbn1^C1039G/+ mice [1]; AT2KO:Fbn1^C1039G/+ mice, 7 months of treatment, FIG. 2C, mean +/- 2 SEM): 2.06+/−0.07 mm | Decrease in aortic root growth in treated AT2KO:Fbn1^C1039G/+ mice relative to that seen in Fbn1^C1039G/+ animals that expressed AT2 (AT2KO:Fbn1^C1039G/+ mice [1]; losartan from 8 weeks to 9 months of age, P<0.001): 40% | Systolic blood pressure (AT2KO:Fbn1^C1039G/+ mice [2]): no difference in blood pressure between the groups; also recorded: lowered blood pressure equally | Systolic blood pressure (Fbn1^C1039G/+ mice [3]): equal reduction in systolic blood pressure | JNK1 activation (JNK1; Fbn1^C1039G/+ mice, FIG. 13): small reduction in JNK1 activation; also recorded: modest reduction in JNK1 activation | JNK1 activation (JNK1; [5]): no significant change; also recorded: no significant difference | Final absolute aortic root diameter (Fbn1^C1039G/+ mice [4]; FIG. 2B): 1.96+/−0.09 mm | Final absolute aortic root diameter (Fbn1^C1039G/+ mice [4]; FIG. 2C): 1.96+/−0.09 mm | Aortic root growth over 7 months of treatment (Fbn1^C1039G/+ mice [4]; versus placebo, drug in drinking water from 8 weeks of age): significant regression in growth; also recorded: regression in aortic size | Aortic root growth over 7 months of treatment (WT mice; WT littermates): had no effect | Final absolute aortic root diameter (WT mice; WT mice, 7 months of treatment, FIG. 2B, mean +/- 2 SEM): 1.77+/−0.15 mm | p38 activation (p38; Fbn1^C1039G/+ mice, FIG. 13): do not affect p38 activation; also recorded: neither had any effect | p38 activation (p38; [5]): no significant change; also recorded: no significant difference | ERK1/2 activation (ERK1/2; AT2KO:Fbn1^C1039G/+ mice, FIG. 10C and 14): ability to inhibit ERK1/2 activation is lost; also recorded: reduced ability to lower ERK1/2 activation; also recorded: loses its ability to decrease ERK1/2 activation | ERK1/2 activation (ERK1/2; Fbn1^C1039G/+ mice, FIG. 10B): reduced it to WT levels; also recorded: reduced ERK1/2 activation to levels indistinguishable from WT littermates

Reference: patent publication US20140148498A1, “METHODS AND COMPOSITIONS FOR THE TREATMENT OF MARFAN SYNDROME AND ASSOCIATED DISORDERS” (THE JOHNS HOPKINS UNIVERSITY, priority 2011, published 2014)
